Test results published in patent publication US10604508B2, “2,3-dihydro-isoindole-1-one derivative as BTK kinase suppressant, and pharmaceutical composition including same” (CrystalGenomics, Inc., priority 2012, dated 2020).

Columns and labels:
Format in all cases: cell-based
RBL-2H3 cell line = test: Histamine Release Assay; details: Rattus norvegicus; RBL-2H3 cells, 500 ng/mL monoclonal anti-DNP, 24 hours
Protocol: Histamine release assays were performed with reference to the method disclosed in the article, FEBS Lett. 2002 Sep. 11; 527 (1-3):274-8. Silencing of Bruton's tyrosine kinase (Btk) using short interfering RNA duplexes (siRNA). Heinonen J E, Smith C I, Nore B F, and the amount of histamine was measured by an enzyme immunoassay.
The RBL-2H3 cell line, purchased from KCLB (Korean Cell Line Bank), was grown in a DMEM medium supplemented with 10% (v/v) FBS at 37° C. in a 5% CO2 incubator for 72 hours. The cells were transferred into 96-well plates at a density of 10,000 cells/well, and cultured at 37° C. in the 5% CO2 incubator for 24 hours.
The cells were treated with 500 ng/mL of monoclonal anti-DNP (sigma) and each of 0.001, 0.01, 0.1, 1.0 and 10 μM of the test compound in 100% (v/v) dimethyl sulfoxide (DMSO). The cells were treated only with 100% (v/v) DMSO, which was used as a control. The treated samples were cultured at 37° C. in the 5% CO2 incubator for 24 hours. Then, histamine release was measured according to manufacturer's instructions (EIA histamine kit, immunotech). Each well was treated with 50 μL of a histamine release buffer, and allowed to react for 30 minutes at 37° C. Upon completion of the reaction, 100 μL of a sample from each well was transferred to a new plate, and then was thoroughly mixed with 25 μL of an acetylation buffer and 25 μL of an acetylation reagent. 50 μL of the acetylation sample thus prepared was transferred to a plate coated with an antibody, mixed with 200 μL of histamine alkaline phosphatase conjugate, and then allowed to react for 18 hours at 4° C. Once the reaction is completed, the sample from the plate is removed, and then 200 μL of a wash buffer was added to wash three times. 200 μL of a substrate was added thereto, and the mixture was allowed to react at room temperature for 30 minutes. The reaction was terminated by adding 50 μL of a stop solution, and absorbance of the samples was read at 406 nm using Benchmark Plus (Biorad). The histamine release level was calculated based on absorbance of the test group against that of the control group. The EC50 (μM) values, in which test compounds reduce the histamine release by 50%, were determined by using Microsoft Excel graphic program.

Jeko-1 = test: MTS anti-proliferation assay, Jeko-1; details: human lymphoma cell line, 48 hours
Protocol: (§1) MTS assay was performed to evaluate the anti-proliferative activities of the inventive compounds via inhibition on extracellular signal-regulated kinase (Barltrop, J. A. et al., (1991) 5-(3-carboxymethoxyphenyl)-2-(4,5-dimethylthiazoly)-3-(4-sulfophenyl) tetrazolium, inner salt (MTS) and related analog of 3-(4,5-dimethylthiazolyl)-2,5,-diphenyltetrazolium bromide (MTT) reducing to purple water soluble formazans as cell-viability indicators. Bioorg. Med Chem. Lett. 1, 611-4; Cory, A. H. et al., (1991) Use of an aqueous soluble tertrazolium/formazan assay for cell growth assays in culture. Cancer Comm. 3, 207-12).
(§2) Human lymphoma cell lines Jeko-1 (ATCC), Mino (ATCC), H9 (Korean Cell Line Bank) and SR (ATCC), and human leukemia cell lines MV4-11 (ATCC), Molm-13 (DSMZ) and Ku812 (ATCC) were used for the test according to the procedure shown below.
(§3) Each of Jeko-1, Mino, H9, SR, MV4-11, Molm-13 and Ku812 cells were transferred into 96-well plates containing RPMI1640 medium (GIBCO, Invitrogen) supplemented with 10% FBS at a density of 10,000 cells/well, and then incubated for 24 hours under conditions of 37° C. and 5% CO2. The wells were treated with each of 0.2, 1, 5, 25 and 100 μM, of the test compounds. The well was treated with DMSO in an amount of 0.08 wt %, which is the same amount as in the test compounds, which was used as a control. The resulting cells were incubated for 48 hours.
(§4) MTS assays are commercially available and include the Promega CellTiter 96® Aqueous Non-Radioactive Cell Proliferation Assay. MTS assays were performed in order to evaluate cell viability of the test compounds. 20 μL of a mixed solution of 3-(4,5-dimethylthiazol-2-yl)-5-(3-carboxymethoxyphenyl)-2-(4-sulfophenyl)-2H-tetrazolium, inner salt (“MTS”) and phenazine methosulfate (PMS) was added to each well, and then incubated for 2 hours at 37° C. Then absorbance of the samples was read at 490 nm. The anti-proliferation activity level was calculated based on absorbance of the test compounds against that of the untreated control group. The EC50 (μM) values, in which test compounds reduce the growth of cancer cells by 50% were calculated.

H9 = test: MTS anti-proliferation assay, H9; details: human lymphoma cell line, 48 hours
Protocol: as §1, §2, §3, §4

SR = test: MTS anti-proliferation assay, SR; details: human lymphoma cell line, 48 hours
Protocol: as §1, §2, §3, §4

Mino = test: MTS anti-proliferation assay, Mino; details: human lymphoma cell line, 48 hours
Protocol: as §1
(§5) Human lymphoma cell lines Jeko-1 (ATCC), Mino (ATCC), H9 (Korean Cell Line Bank) and SR (ATCC), and human leukemia cell lines MV4-11 (ATCC), Molm-13 (DSMZ) and Ku812 (ATCC) were used for the test according to the procedure shown below. […]
(§6) MTS assays are commercially available and include the Promega CellTiter 96® Aqueous Non-Radioactive Cell Proliferation Assay. […] Then absorbance of the samples was read at 490 nm. The anti-proliferation activity level was calculated based on absorbance of the test compounds against that of the untreated control group. […]

MV4-11 = test: MTS anti-proliferation assay, MV4-11; details: human leukemia cell line, 48 hours
Protocol: as §1, §5, §6

Molm-13 = test: MTS anti-proliferation assay, Molm-13; details: human leukemia cell line, 48 hours
Protocol: as §1, §5, §6

Ku812 = test: MTS anti-proliferation assay, Ku812; details: human leukemia cell line, 48 hours
Protocol: as §1, §5, §6

| SMILES | EC50 (RBL-2H3 cell line) | EC50 (Jeko-1) | EC50 (H9) | EC50 (SR) | EC50 (Mino) | EC50 (MV4-11) | EC50 (Molm-13) | EC50 (Ku812) |
| --- | --- | --- | --- | --- | --- | --- | --- | --- |
| Cc1cnc(-c2ccc(-c3ccc(NC(=O)Nc4c(F)cccc4Cl)cc3F)c3c2C(=O)NC3)[nH]1 [Compound 4, 1-(2-chloro-6-fluoro-phenyl)-3-{3-fluoro-4-[7-(5-methyl-1H-imidazol-2-yl)-1-oxo-2,3-dihydro-1H-isoindol-4-yl]-phenyl}-urea] | 250 nM | 100 nM | 30 nM | 30 nM | – | – | – | – |
| Cc1cnc(-c2ccc(-c3ccc(NC(=O)Nc4c(F)ccc(Cl)c4F)cc3F)c3c2C(=O)NC3)[nH]1 [Compound 17, 1-(3-chloro-2,6-difluorophenyl)-3-(3-fluoro-4-(7-(5-methyl-1H-imidazol-2-yl)-1-oxoisoindolin-4-yl)phenyl)urea] | 40 nM | 30 nM | 20 nM | 25 nM | 18 nM | 4 nM | 12 nM | 190 nM |
| Cc1cnc(-c2ccc(-c3ccc(NC(=O)Nc4c(F)cccc4F)cc3F)c3c2C(=O)NC3)[nH]1 [Compound 3, 1-(2,6-difluoro-phenyl)-3-{3-fluoro-4-[7-(5-methyl-1H-imidazol-2-yl)-1-oxo-2,3-dihydro-1H-isoindol-4-yl]-phenyl}-urea] | 450 nM | 100 nM | 30 nM | 100 nM | – | – | – | – |
| Cc1cnc(-c2ccc(-c3ccc(NC(=O)Nc4c(F)ccc(F)c4Cl)cc3F)c3c2C(=O)NC3)[nH]1 [Compound 18, 1-(2-chloro-3,6-difluorophenyl)-3-(3-fluoro-4-(7-(5-methyl-1H-imidazol-2-yl)-1-oxoisoindolin-4-yl)phenyl)urea] | 300 nM | 30 nM | 20 nM | 20 nM | – | – | – | – |
| Cc1cnc(-c2ccc(-c3ccc(NC(=O)Nc4ccc(C#N)c(F)c4)cc3F)c3c2C(=O)NC3)[nH]1 [Compound 15, 1-(4-cyano-3-fluorophenyl)-3-(3-fluoro-4-(7-(5-methyl-1H-imidazol-2-yl)-1-oxoisoindolin-4-yl)phenyl)urea] | 220 nM | 100 nM | 190 nM | 150 nM | – | – | – | – |
| Cc1cnc(-c2ccc(-c3ccc(NC(=O)Nc4c(F)ccc(F)c4F)cc3F)c3c2C(=O)NC3)[nH]1 [Compound 12, 1-{3-fluoro-4-[7-(5-methyl-1H-imidazol-2-yl)-1-oxo-2,3-dihydro-1H-isoindol-4-yl]-phenyl}-3-(2,3,6-trifluoro-phenyl)-urea] | 300 nM | 150 nM | 40 nM | 20 nM | – | – | – | – |
| Cc1cnc(-c2ccc(-c3ccc(NC(=O)Nc4ccc(F)c(F)c4)cc3F)c3c2C(=O)NC3)[nH]1 [Compound 14, 1-(3,4-difluoro-phenyl)-3-{3-fluoro-4-[7-(5-methyl-1H-imidazol-2-yl)-1-oxo-2,3-dihydro-1H-isoindol-4-yl]-phenyl}-urea] | 200 nM | 30 nM | 20 nM | 18 nM | – | – | – | – |
| Cc1cnc(-c2ccc(-c3ccc(NC(=O)Nc4c(F)cc(F)cc4F)cc3F)c3c2C(=O)NC3)[nH]1 [Compound 7, 1-{3-fluoro-4-[7-(5-methyl-1H-imidazol-2-yl)-1-oxo-2,3-dihydro-1H-isoindol-4-yl]-phenyl}-3-(2,4,6-trifluoro-phenyl)-urea] | 220 nM | 30 nM | 7 nM | 15 nM | 18 nM | 2 nM | 3 nM | 600 nM |
| Cc1cnc(-c2ccc(-c3ccc(NC(=O)Nc4c(F)c(F)c(F)c(F)c4F)cc3F)c3c2C(=O)NC3)[nH]1 [Compound 9, 1-{3-fluoro-4-[7-(5-methyl-1H-imidazol-2-yl)-1-oxo-2,3-dihydro-1H-isoindol-4-yl]-phenyl}-3-pentafluorophenyl-urea] | 350 nM | 30 nM | 6 nM | 18 nM | – | – | – | – |
| Cc1cnc(-c2ccc(-c3ccc(NC(=O)Nc4c(F)cc(Cl)cc4F)cc3F)c3c2C(=O)NC3)[nH]1 [Compound 19, 1-(4-chloro-2,6-difluoro-phenyl)-3-{3-fluoro-4-[7-(5-methyl-1H-imidazol-2-yl)-1-oxo-2,3-dihydro-1H-isoindol-4-yl]-phenyl}-urea] | 300 nM | 30 nM | 40 nM | 20 nM | – | – | – | – |
| Cc1cnc(-c2ccc(-c3ccc(NC(=O)Nc4c(F)c(F)cc(F)c4F)cc3F)c3c2C(=O)NC3)[nH]1 [Compound 20, 1-{3-fluoro-4-[7-(5-methyl-1H-imidazol-2-yl)-1-oxo-2,3-dihydro-1H-isoindol-4-yl]-phenyl}-3-(2,3,5,6-tetrafluoro-phenyl)-urea] | 300 nM | 30 nM | 10 nM | 17 nM | – | – | – | – |
